According to patent US6846492B2, “Use of phenylethylamine derivatives for the antimicrobial treatment of surfaces” (Ciba Specialty Chemicals Corporation, priority 2000, dated 2005):

Key:
Assay type in all cases: cell-based
[1] = test system: Staphylococcus hominis DMS 20328 (= SH); test: MIC determination in microtiter plates, Staphylococcus hominis; details: Tables 2a/2b, 48 hours at 37° C., ≦20% growth, optical density 620 nm, tested at 120, 60, 30, 15, 7.5 and 3.5 ppm, some approximate
Protocol: (§1) Determination of the Minimum Inhibitory Concentration (MIC Value) in Microtiter Plates
(§2) Casein/soybean flour peptone bouillon for the preparation of pre-cultures of the test bacteria and yeast.
(§3) Mycological slant agar for the pre-culture of moulds
(§4) The test substances are pre-dissolved in dimethyl sulfoxide (DMSO) and tested in a dilution series of 1:2.
(§5) Bacteria and yeast are cultured overnight in CASO bouillon, the mould is cultured overnight on mycological slant agar, and washed off with 10 ml of 0.85% sodium chloride solution (+0.1% TritonX-100).
(§6) All the test organisms are adjusted to an organism count of 1−5×10^6 CFU/ml using 0.85% sodium chloride solution.
(§7) The test substances are pre-pipetted into microtiter plates in an amount of 8 μl per well.
(§8) Pre-diluted organism suspensions are diluted 1:100 in CASO bouillon (bacteria and yeast) or Sabouraud 2% glucose bouillon (mould) and are added in an amount of 192 μl per well to the test substances.
(§9) The test batches are incubated for 48 hours at 37° C. (bacteria and yeast) or for 5 days at 28° C. (mould).
(§10) After incubation, the growth is evaluated by reference to the turbidity of the test batches (optical density) at 620 nm in a microplate reader.
(§11) One microtiter plate is used for each test organism and substance concentration. All the substances are tested in duplicate.

[2] = test system: Escherichia coli NCTC 8196 (= EC); test: MIC determination in microtiter plates, Escherichia coli; details: Tables 2a/2b, 48 hours at 37° C., ≦20% growth, optical density 620 nm, some approximate values
Protocol: as §1, §2, §3, §4, §5, §6, §7, §8, §9, §10, §11

[3] = test system: Pseudomonas aeruginosa CIP A-22 (= PA); test: MIC determination in microtiter plates, Pseudomonas aeruginosa; details: Tables 2a/2b, 48 hours at 37° C., ≦20% growth, optical density 620 nm, some approximate values
Protocol: as §1, §2, §3, §4, §5, §6, §7, §8, §9, §10, §11

[4] = test system: Candida albicans ATCC 10231 (= CA); test: MIC determination in microtiter plates, Candida albicans; details: Tables 2a/2b, 48 hours at 37° C., ≦20% growth, optical density 620 nm, some approximate values
Protocol: as §1, §2, §3, §4, §5, §6, §7, §8, §9, §10, §11

[5] = test system: Aspergillus niger ATCC 6275 (= AN); test: MIC determination in microtiter plates, Aspergillus niger; details: Tables 2a/2b, 5 days at 28° C., ≦20% growth, optical density 620 nm, some approximate values
Protocol: as §1, §2, §3, §4, §5, §6, §7, §8, §9, §10, §11

Row | Structure (SMILES) | MIC [ppm] SH [1] [ppm] | MIC [ppm] EC [2] | MIC [ppm] PA [3] [ppm] | MIC [ppm] CA [4] [ppm] | MIC [ppm] AN [5] [ppm]
1 | CCOC(=O)CCCCOc1ccc(CCN)cc1OCCCCC(=O)OCC [Compound 28] | >120 | >120 ppm | >120 | >120 | >120
2 | CCOC(=O)CCCOc1cc(CCN)cc(OCCCC(=O)OCC)c1OCCCC(=O)OCC [Compound 78] | >120 | >120 ppm | >120 | >120 | >120
3 | CC(C)(C)c1ccc(COc2cc(CCN)cc(OCc3ccc(C(C)(C)C)cc3)c2OCc2ccc(C(C)(C)C)cc2)cc1 [Compound 69] | >120 | >120 ppm | >120 | >120 | >120
4 | Cc1ccc(C(=O)COc2cc(CCN)cc(OCC(=O)c3ccc(C)cc3)c2OCC(=O)c2ccc(C)cc2)cc1 [Compound 98] | 30 | 30 ppm | >120 | >120 | >120
5 | CCCOc1ccc(CCN)cc1OCCC [Compound 29] | >120 | >120 ppm | >120 | >120 | >120
6 | CCC(C)Oc1cc(CCN)cc(OC(C)CC)c1OC(C)CC (stereo not shown) [Compound 83] | >120 | 30 ppm | >120 | 120 | >120
7 | NCCc1ccc(OCc2ccc(C(F)(F)F)cc2)c(OCc2ccc(C(F)(F)F)cc2)c1 [Compound 10] | 3.75 | 7.5 ppm | >120 | 3.75 | >120
8 | CCC(CC)Oc1ccc(CCN)cc1OC(CC)CC [Compound 35] | 60 | 60 ppm | >120 | 60 | >120
9 | CCCCCCCOc1ccc(CCN)cc1OCCCCCCC [Compound 37] | 3.75 | 30 ppm | >120 | 30 | >120
10 | C=CCCOc1cc(CCN)cc(OCCC=C)c1OCCC=C [Compound 94] | 60 | 60 ppm | >120 | 120 | >120
11 | NCCc1cc(OCc2cccc(F)c2)c(OCc2cccc(F)c2)c(OCc2cccc(F)c2)c1 [Compound 67] | 3.75 | 7.5 ppm | >120 | 7.5 | >120
12 | CCCCCCCCCCOc1ccc(CCN)cc1OCCCCCCCCCC [Compound 40] | >120 | >120 ppm | >120 | >120 | >120
13 | NCCc1ccc(OCC(=O)OCc2ccccc2)c(OCC(=O)OCc2ccccc2)c1 [Compound 26] | >120 | >120 ppm | >120 | >120 | >120
14 | CCOC(=O)COc1ccc(CCN)cc1OCC(=O)OCC [Compound 22] | >120 | >120 ppm | >120 | >120 | >120
15 | CCCCCCCCCOc1ccc(CCN)cc1OCCCCCCCCC [Compound 39] | 60 | >120 ppm | >120 | >120 | >120
16 | COC(=O)c1ccc(COc2cc(CCN)cc(OCc3ccc(C(=O)OC)cc3)c2OCc2ccc(C(=O)OC)cc2)cc1 [Compound 65] | 15 | >120 ppm | >120 | 60 | >120

Row | Structure (SMILES) | MIC [ppm] SH [1] [ppm] | MIC [ppm] EC [2] | MIC [ppm] PA [3] [ppm] | MIC [ppm] CA [4] [ppm] | MIC [ppm] AN [5] [ppm]
17 | NCCc1ccc(OC2CCCC2)c(OC2CCCC2)c1 [Compound 41] | 120 | 120 ppm | >120 | 120 | >120
18 | C=CCCOc1ccc(CCN)cc1OCCC=C [Compound 43] | >120 | >120 ppm | >120 | >120 | >120
19 | CCCCOc1cc(CCN)cc(OCCCC)c1OCCCC [Compound 81] | 15 | 7,5 ppm | 120 | 30 | >120
20 | CCCCCCOc1ccc(CCN)cc1OCCCCCC [Compound 36] | 3.75 | 3.75 ppm | >120 | 3.75 | >120
21 | CCOC(=O)COc1cc(CCN)cc(OCC(=O)OCC)c1OCC(=O)OCC [Compound 73] | >120 | >120 ppm | >120 | >120 | >120
22 | N#Cc1cccc(COc2ccc(CCN)cc2OCc2cccc(C#N)c2)c1 [Compound 12] | 60 | 120 ppm | >120 | >120 | 30
23 | NCCc1cc(OCC(=O)c2ccccc2)c(OCC(=O)c2ccccc2)c(OCC(=O)c2ccccc2)c1 [Compound 97] | >120 | >120 ppm | >120 | >120 | >120
24 | N#Cc1ccc(COc2cc(CCN)cc(OCc3ccc(C#N)cc3)c2OCc2ccc(C#N)cc2)cc1 [Compound 64] | >120 | >120 ppm | >120 | 60 | 15
25 | CCC(C)Oc1ccc(CCN)cc1OC(C)CC (stereo not shown) [Compound 32] | >120 | >120 ppm | >120 | >120 | >120
26 | NCCc1ccc(OCc2ccc3ccccc3c2)c(OCc2ccc3ccccc3c2)c1 [Compound 20] | 3.75 | >120 ppm | >120 | >120 | >120
27 | NCCc1cc(OCc2ccc3ccccc3c2)c(OCc2ccc3ccccc3c2)c(OCc2ccc3ccccc3c2)c1 [Compound 71] | >120 | >120 ppm | >120 | >120 | >120
28 | CC(C)Oc1ccc(CCN)cc1OC(C)C [Compound 31] | >120 | >120 ppm | >120 | >120 | >120
29 | CCCCCCCCOc1ccc(CCN)cc1OCCCCCCCC [Compound 38] | 7.5 | >120 ppm | >120 | >120 | >120
30 | CCC(CC)Oc1cc(CCN)cc(OC(CC)CC)c1OC(CC)CC [Compound 86] | 7.5 | 15 ppm | >120 | 60 | 30
31 | NCCc1cc(OCC(=O)OCc2ccccc2)c(OCC(=O)OCc2ccccc2)c(OCC(=O)OCc2ccccc2)c1 [Compound 77] | 120 | >120 ppm | >120 | >120 | >120
32 | COC(=O)c1ccc(COc2ccc(CCN)cc2OCc2ccc(C(=O)OC)cc2)cc1 [Compound 14] | 7.5 | 30 ppm | 120 | 30 | >120
